Patent US8518958B2, “Pyrido [2,3-D] pyrimidines and their use as kinase inhibitors” (Forma Therapeutics, Inc., priority 2006, dated 2013)
Where two headings read alike, the source gives them in different places.

Key:
[1] = target: B-Raf delta1-415 (Homo sapiens, UniProt P15056); test: B-Raf kinase inhibition (MAPH filter plate, 33P-ATP, MEK1 substrate); conditions: read-out: Biochemical IC50 B-Raf
Text: We characterized the in vitro inhibitory activity against protein kinases of compounds of the present invention by determining their IC50 values (see Table 2).
Kinase: B-Raf delta1-415 (e.g., Upstate Cat. No. 14-530)
Reaction Temperature: room temperature
Assay Plate: 96 well U bottom plate (Greiner, 650161)
MultiScreen-PH Plate: 96 well MAPH Filter Plates (Millipore, MAPHNOB50)
Filter Washing Solution: 0.75% H3PO4
Szintilation Liquid: Supermix Liquid Szintillator (PerkinElmer, 1200-439)
Negative Control (C−): 100 mM EDTA, no Inhibitor
Positive Control (C+): no Inhibitor
Reaction Buffer: 20 mM Mops, pH 7.0 • 10 mM MgCl2 • 0.4 mM MnCl2 • 100 mM NaCl • 1 mM DTT • 0.01% NP40
Final Assay Concentrations:
Kinase: Kinase conc. yielding 50% substrate turnover as determined in titration experiment.
Adenosine 5′-[γ-^33P]triphosphate: 12.5 μCi/ml (Amersham Biosciences, BF1000)
Pipetting Sequence: • 1) Add 10 μl 4-fold concentrated substrate in 3-fold concentrated reaction buffer to each well of assay plate • 2) Add 10 μl 4-fold concentrated inhibitor in 4% DMSO in H2O to each well except to C− and C+ wells (starting point: final inhibitor concentration 10 μM; IC50 determination based on dilution series) • 3) Add 10 μl 4% DMSO in H2O to C− and C+ wells • 4) Add 10 μl 500 mM EDTA in H2O to C− wells • 5) Add 10 μl 50 μCi/ml adenosine 5′-[γ-^33P]triphosphate in H2O+4-fold cold ATP to each well • 6) Add 10 μl 4-fold concentrated kinase in reaction buffer to each well • 7) Incubate 1 hr at room temperature • 8) Add 10 μl 50 mM EDTA in H2O to each well except to C− wells • 9) Prepare MAPH plates by adding 200 μl 0.75% H3PO4 to each well • 10) Exhaust 0.75% H3PO4 using Millipore vacuum station • 11) Add 60 μl 0.75% H3PO4 to each well of MAPH filter plate • 12) Transfer 30 μl sample per well from assay plate to corresponding well of MAPH filter plate • 13) Incubate 30 min at room temperature • 14) Wash each well of MAPH filter plates 3× with 200 μl 0.75% H3PO4 using Millipore vacuum station • 15) Add 20 μl scintillation liquid to each well of MAPH filter plate • 16) Seal MAPH filter plate • 17) Store MAPH filter plate 30 min in darkness • 18) Quantify radioactivity using scintillation counter (MicroBeta, Perkin-Elmer)

[2] = test system: HT-29 tumor cells; test: Anti-proliferative activity, SRB assay; format: cell-based, human; conditions: 72 hours exposure, read-out: CELLULAR IC50 HT-29
Experimental: We observed the surprising finding that compounds of the invention were useful in inhibiting proliferation of HT-29 tumor cells (see Table 3).
3,000-15,000 cells/well were exposed to the test compounds at various concentrations appropriate to determine an IC50, for 72 hours, and cell proliferation was measured using the SRB assay according to Shekan et al (J Natl Cancer Inst (1990) 82, 1107-112) in order to estimate the IC50 values shown in Table 3. Briefly, cells were plated in 96 well dishes 24 hours prior to compound addition. The assay was terminated with the addition of cold TCA to a final concentration of 10% and the plates were incubated for one hour at 4° C. The plates were then washed 5 times with water and 100 μl of a Sulforhodamine B solution (4%) was added to each well. The plate was then incubated for 10 minutes at room temperature before removal of unbound dye by washing with 1% acetic acid. The bound dye was solubilized with 10 mM Trizma base and the absorbance read at OD570. Inhibitory activity of the compounds was calculated as % inhibition of cell proliferation compared to cells treated with the solvent (DMSO).

Sequence of B-Raf delta1-415 (P15056 416-766): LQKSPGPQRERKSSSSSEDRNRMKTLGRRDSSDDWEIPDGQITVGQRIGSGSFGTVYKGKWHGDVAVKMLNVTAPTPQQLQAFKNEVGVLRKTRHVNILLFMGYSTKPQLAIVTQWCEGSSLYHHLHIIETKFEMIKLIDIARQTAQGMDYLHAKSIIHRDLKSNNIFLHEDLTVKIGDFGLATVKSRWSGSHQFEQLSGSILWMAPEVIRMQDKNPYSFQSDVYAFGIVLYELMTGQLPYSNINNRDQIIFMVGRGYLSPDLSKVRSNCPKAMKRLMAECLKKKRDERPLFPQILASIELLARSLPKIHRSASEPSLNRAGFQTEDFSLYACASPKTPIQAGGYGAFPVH

| IC50 [1] [nM] | IC50 ([2]; Homo sapiens, HT-29, 72 h) [nM] | IC50 [2] [nM] | Structure (SMILES) |
| --- | --- | --- | --- |
| < 500 | < 1000 |  | COn1c(=O)c(-c2c(Cl)cccc2Cl)cc2cnc(Nc3ccc(Cn4cnnc4)cc3)nc21 [Compound 175, 2-(4-(1,3,4-triazol-1-yl)methylphenyl)-amino-6-(2,6-dichlorophenyl)-8-methoxy-pyrido[2,3-d]pyrimidin-7-one] |
| < 500 | < 10000 |  | COn1c(=O)c(-c2c(Cl)cccc2Cl)cc2cnc(Nc3ccncn3)nc21 [Compound 135, 6-(2,6-Dichlorophenyl)-8-methoxy-2-(pyrimidin-4-yl)-amino-pyrido[2,3-d]pyrimidin-7-one] |
| < 500 | < 10000 |  | COn1c(=O)c(-c2c(Cl)cccc2Cl)cc2cnc(Nc3ccc(N4CCCC4)cc3)nc21 [Compound 105, 6-(2,6-Dichlorophenyl)-8-methoxy-2-(4-pyrrolidinophenyl)-amino-pyrido[2,3-d]pyrimidin-7-one] |
| < 500 | < 1000 |  | COn1c(=O)c(-c2c(Cl)cccc2Cl)cc2cnc(Nc3ccc(CN4CC(O)C4)cc3)nc21 [Compound 168] |
| < 100 | < 1000 |  | COn1c(=O)c(-c2c(Cl)cccc2Cl)cc2cnc(Nc3ccc(N4CCCC4=O)cc3)nc21 [Compound 110, 6-(2,6-Dichlorophenyl)-8-methoxy-2-(4-(2-oxopyrrolidino)phenyl)-amino-pyrido[2,3-d]pyrimidin-7-one] |
| < 500 | < 1000 |  | COn1c(=O)c(-c2c(C)cccc2C)cc2cnc(Nc3cc(C(=O)NCCO)n(C)c3)nc21 [Compound 83, 6-(2,6-Dimethylphenyl)-2-(5-(2-hydroxyethyl)aminocarbonyl-1-methyl-pyrrol-3-yl)-amino-8-methoxy-pyrido[2,3-d]pyrimidin-7-one] |
| < 1000 |  | < 10000 | COn1c(=O)c(-c2c(Cl)cccc2Cl)cc2cnc(Nc3nc(C(=O)N(C)CCO)cs3)nc21 [Compound 138, 6-(2,6-Dichlorophenyl)-8-methoxy-2-(4-N-(2-hydroxyethyl)-N-methyl-aminocarbonyl-thiazol-2-yl)-amino-pyrido[2,3-d]pyrimidin-7-one] |
| < 500 | < 1000 |  | COn1c(=O)c(-c2c(Cl)cccc2Cl)cc2cnc(Nc3ccc(CN4CCC(F)(F)C4)cc3)nc21 [Compound 196, 6-(2,6-Dichlorophenyl)-2-(4-(3,3-difluoropyrrolidinomethyl)phenyl)-amino-8-methoxy-pyrido[2,3.-d]pyrimidin-7-one] |
| < 100 | < 1000 |  | COCCOn1c(=O)c(-c2cc(NC(=O)c3cccc(C(F)(F)F)c3)ccc2Cl)cc2cnc(Nc3ccc(N4CCN(C)CC4)cc3)nc21 [Compound 107, 8-(2-Methoxyethyl)oxy-2-(4-(4-methylpiperazino)-6-(5-(3-trifluoromethylbenzoyl)amino-2-chloro-phenyl)-phenylamino)-pyrido[2,3-d]pyrimidin-7-one] |
| < 500 | < 1000 |  | COn1c(=O)c(-c2c(Cl)cccc2Cl)cc2cnc(Nc3ccc(CNCCO)cc3)nc21 [Compound 178, 2-(4-(2-hydroxyethylamino)methyl-phenyl)-amino-6-(2,6-dichlorophenyl)-8-methoxy-pyrido[2,3-d]pyrimidin-7-one] |
| < 500 | < 1000 |  | COn1c(=O)c(-c2c(Cl)cccc2Cl)cc2cnc(Nc3cc(C(=O)NCCN4CCCC4)n(C)c3)nc21 [Compound 94, 6-(2,6-Dichlorophenyl)-8-methoxy-2-(5-(2-pyrrolidinoethyl)aminocarbonyl-1-methyl-pyrrol-3-yl)-amino-pyrido[2,3-d]pyrimidin-7-one] |
| < 500 | < 1000 |  | COn1c(=O)c(-c2c(C)cccc2C)cc2cnc(Nc3cc(C(=O)NCCN4CCCC4)n(C)c3)nc21 [Compound 87, 6-(2,6-Dimethylphenyl)-8-methoxy-2-(5-(2-pyrrolidinoethyl)aminocarbonyl-1-methyl-pyrrol-3-yl)-amino-pyrido[2,3-d]pyrimidin-7-one] |
| < 500 | < 1000 |  | CCCN1CCN(c2ccc(Nc3ncc4cc(-c5c(Cl)cccc5Cl)c(=O)n(OCCOC)c4n3)cc2)CC1 [Compound 207, 2-(4-(4-propylpiperazino)phenyl)-amino-6-(2,6-dichlorophenyl)-8-(2-methoxyethyl)oxy-pyrido[2,3-d]pyrimidin-7-one] |
| < 500 | > 10000 |  | COn1c(=O)c(-c2c(Cl)cccc2Cl)cc2cnc(Nc3cccc(-c4nnn[nH]4)c3)nc21 [Compound 130, 6-(2,6-Dichlorophenyl)-8-methoxy-2-(3-tetrazol-5-ylphenyl)-amino-pyrido[2,3-d]pyrimidin-7-one] |
| < 100 | < 1000 |  | COn1c(=O)c(-c2c(Cl)cccc2Cl)cc2cnc(Nc3ccc(CN4CC[C@@H](O)C4)cc3)nc21 [Compound 179, 6-(2,6-Dichlorophenyl)-2-(4-(3-(R)-hydroxypyrrolidinomethyl)phenyl)-amino-8-methoxy-pyrido[2,3-d]pyrimidin-7-one] |
| > 1000 | < 10000 |  | O=c1ccc2cnc(Nc3ccc(N4CCOCC4)cc3)nc2n1OC1CCCC1 [Compound 226] |
| < 500 | < 10000 |  | COn1c(=O)c(-c2c(Cl)cccc2Cl)cc2cnc(NC3CC3)nc21 [Compound 113, 2-Cyclopropylamino-6-(2,6-dichlorophenyl)-8-methoxy-pyrido[2,3-d]pyrimidin-7-one] |
| < 1000 | < 1000 |  | COn1c(=O)c(-c2c(Cl)cccc2Cl)cc2cnc(Nc3ccccc3)nc21 [Compound 174, 6-(2,6-Dichlorophenyl)-8-methoxy-2-phenylamino-pyrido[2,3-d]pyrimidin-7-one] |
| < 100 | < 1000 |  | COc1cc(Nc2ncc3cc(-c4c(F)cccc4Cl)c(=O)n(OC)c3n2)ccc1N1CCNCC1 [Compound 214, 6-(2-Chloro-6-fluorophenyl)-8-methoxy-2-(3-methoxy-4-piperazinophenyl)-amino-pyrido[2,3-d]pyrimidin-7-one] |
| < 100 | < 1000 |  | COn1c(=O)c(-c2c(Cl)cccc2Cl)cc2cnc(Nc3cc(C(=O)N4CCOCC4)n(C)c3)nc21 [Compound 137, 6-(2,6-Dichlorophenyl)-8-methoxy-2-(5-morpholinocarbonyl-1-methyl-pyrrol-3-yl)-amino-pyrido[2,3-d]pyrimidin-7-one] |
| < 500 | < 1000 |  | COn1c(=O)c(-c2c(Cl)cccc2Cl)cc2cnc(Nc3ccc(C(C)=O)cc3)nc21 [Compound 192, 2-(4-Acetylphenyl)amino-6-(2,6-dichlorophenyl)-8-methoxy-pyrido[2,3-d]pyrimidin-7-one] |
| < 500 | < 1000 |  | Cn1cc(Nc2ncc3cc(-c4c(Cl)cccc4Cl)c(=O)n(OC[C@@H](O)CO)c3n2)cc1C(=O)NCCN1CCCC1 [Compound 103, 6-(2,6-Dichlorophenyl)-8-(2-(S)-2,3-dihydroxypropyl)oxy-2-(5-(2-pyrrolidinoethyl)aminocarbonyl-1-methyl-pyrrol-3-yl)-amino-pyrido[2,3-d]pyrimidin-7-one] |
| > 1000 | < 10000 |  | CCN(CC)S(=O)(=O)c1cccc(Nc2ncc3cc(-c4c(Cl)cccc4Cl)c(=O)n(OC)c3n2)c1 [Compound 123, 6-(2,6-Dichlorophenyl)-2-(3-diethylaminosulfonylphenyl)-amino-8-methoxy-pyrido[2,3-d]pyrimidin-7-one] |
